Entries after “also recorded” stand apart in the source; their conditions may differ.
How the values were obtained:
[1] = system: NLRP3 inflammasome in BMDM; assay: NLRP3 inflammasome activation in BMDM (LPS priming + ATP, nigericin or MSU); assay type: cell-based, mouse; settings: for production of IL-18: then ATP 3 mM 45 min; for protein expression of pro-IL-1β: 0.25 mM 12 h
Experimental: (§1) The concentration of cytokines in culture supernatants was determined using the following kits according to manufacturer's instructions. DuoSet® kits for mouse IL-1β/IL-1F2, TNF-α and IL-6 (all R&D systems); mouse IL-12 ELISA MAX™ Deluxe Set (BioLegend); mouse IL-18 ELISA kit (MBL). Nitric oxide was quantified using Griess Reagent System (Promega).
(§2) BMDM were stimulated as indicated, washed with PBS, lysed in RIPA Lysis Buffer System (Santa Cruz) and boiled in sample loading buffer containing SDS and 100 mM DTT. Proteins were separated by electrophoresis through 4-20% polyacrylamide gradient gels (BioRad). After electrophoretic transfer of proteins onto PVDF membranes, nonspecific binding was blocked by incubation with 5% skim milk and membranes were probed with primary antibodies anti-IL1β (1:1000 dilution; 12507S, CellSignaling), NIrp3 (1:500 dilution; NBP2-12446, Novus), HIF-1α (1:500 dilution; NB100-449, Novus), α-tubulin (1:2000 dilution; 2125S, CellSignaling), ASC (1:1000 dilution; sc-22514-R, Santa Cruz) followed by incubation with secondary antibodies (horseradish peroxidase-conjugated anti-rabbit, 1:10,000 dilution; sc-2030, Santa Cruz) and visualized with Clarity™ western ECL substrate (Biorad).

[2] = system: IMQ-induced skin inflammation; assay: Imiquimod (IMQ)-induced psoriasis model; assay type: in vivo; settings: mouse ear skin, 20 mg DI ip daily, IMQ cream 7 days
Experimental: IMQ cream (5%) was applied on mouse ear skin for 7 days and skin pathology was assessed on day 8. Mice received 20 mg DI ip. (DI+IMQ) or vehicle ip (PBS; IMQ) was administered one day prior to IMQ application and every day thereafter until day 7. DI group: received 20 mg DI as above but no IMQ; naïve mice received vehicle as above but no IMQ.

[3] = system: BMDM infected with S. typhimurium; assay: In vitro infection of BMDM with Salmonella typhimurium; assay type: cell-based, mouse
[4] = system: AIM2-inflammasome in BMDM; assay: AIM2-inflammasome activation in BMDM (poly dA:dT transfection); assay type: cell-based, mouse; settings: DI 12 h, 5 h
Experimental: as §1

unstimulated BMDM = assay: Extracellular flux analysis (Seahorse); assay type: cell-based, mouse; settings: 0.25 mM DI 12 h
Experimental: Extracellular acidification rate (ECAR) and Oxygen Consumption rate (OCR) were measured in real time using Seahorse technology as described previously.

[5] = system: naïve CD4 T cells under Th17 polarizing conditions; assay: Th17 differentiation of naïve CD4 T cells; assay type: cell-based, C56BL/6 mice; settings: for frequency of IL-17-producing cells (Th17 differentiation): Th17 polarizing conditions; for frequency of IL-17-producing cells (Th17 differentiation) / cytotoxic effect (frequency of live CD4 T cells): flow cytometry; for cytotoxic effect (frequency of live CD4 T cells): day 4 after Th17 polarization
Experimental: FIG. 25C is a series of plots showing DI inhibits also the secretion of IL-17 (left) and GM-CSF (right) in the supernatant of CD4 T cells. On day 4 cells were collected, washed, and re-stimulated in equal numbers for each condition with anti-CD3 and anti-CD28. After 24 h supernatants were collected and assayed for IL-17 and GM-CSF by ELISA.

[6] = system: neonatal rat cardiac myocytes; assay: Hypoxia modeling in neonatal rat cardiac myocytes; settings: NRCMs, hypoxia 24 h, DI pretreatment
Experimental: Neonatal rat cardiac myocytes were isolated and cultured as described. Cells were subjected to hypoxia in an oxygen control cabinet (Coy Laboratories, Grass Lake, Mich.) mounted within an incubator and equipped with oxygen controller and sensor for continuous oxygen level monitoring. […] Cell death was assessed with the Live-Dead Cytotoxicity Viability kit for Mammalian cells (Invitrogen) and ROS generation was monitored by flow cytometric assessment of carboxy-H2DCFDA fluorescence (following incubation in 10 μmol/L for 30 minutes), as previously described.

[7] = system: bone-marrow derived macrophages; assay: Cell viability of bone-marrow derived macrophages; assay type: cell-based, mouse
Experimental: Live cells were determined via flow cytometry using a live/dead cell fluorescent dye. Shown are representative data from three independent experiments.
Cells were incubated with FcγR-blocking anti-CD16/32 (clone 93, Biolegend) before staining with antibodies to F4/80 (clone BM8, eBioscience) and CD11b (clone M1/70; BD Pharmingen) together with LIVE/DEAD dye (Invitrogen). Intracellular iNOS was detected with mouse anti-NOS2 (clone C-11, Santa Cruz Biotechnology) followed by incubation with fluorochrome-conjugated anti-mouse IgG (Clone A85-1, BD Pharmingen) using the BD cytofix/cytoperm Kit (BD Biosciences) according to manufacturer's instructions. Cells were acquired on a Canto II flow cytometer (BD Biosciences) and data were analyzed using FlowJo v.9.5.2 software (Tree Star).

[8] = system: bone marrow-derived macrophage (BMDM); assay: RNA-seq transcriptional profiling of LPS-stimulated BMDM; settings: for pro-inflammatory transcripts / inflammatory markers (Nos2, II6, II12b etc.): 0.25 mM 12 h pretreatment, LPS 100 ng/ml 4 h
[9] = system: anti-CD3-induced inflammation; assay: Anti-CD3-induced inflammation in mice (serum IL-17); assay type: in vivo; settings: 4 mg or 20 mg DI ip, 48 h after anti-CD3, ELISA
Experimental: FIG. 26A is a plot showing DI-treatment diminished in vivo systemic IL-17 production. Circulating serum IL-17 levels were determined by ELISA 48 h after anti-CD3-induced inflammation in mice treated or not with the indicated doses of DI. Briefly, mice were received intraperitoneal (ip) injections of 4 mg (n=10) or 20 mg (n=5) DI or vehicle (PBS; shown as 0; n=10) 3 h prior (−3 h) to an anti-CD3 injection (given at 0 h ip) and every 20 h thereafter until mice were analyzed at 48 h.

[10] = system: myocardial ischemia-reperfusion injury; assay: Myocardial ischemia-reperfusion model; assay type: in vivo, mice; settings: for myocardial infarct size: 30 min ischemia, 2 h reperfusion, intravenous infusion during ischemia
Experimental: In vivo ischemia-reperfusion modeling was performed as previously described. 8 to 10 week-old mice were anesthetized and subjected to an open chest procedure of reversible left anterior descending artery ligation for 30 min and subsequent reperfusion for 2 hours. Saline or DI (4 mg/Kg/min) was infused intravenously for 10 min before and throughout the ischemic period. A cardioplegic solution followed by TTC at 37° C. and then Evans Blue (after reocclusion of the LAD) was injected in a retrograde manner through the aorta in situ. The left ventricle was then sectioned into 5 slices and image analysis was performed with Image J (NIH).

[11] = system: mitochondrial ROS in BMDM; assay: Measurement of mROS (MitoSOX) in BMDM; assay type: cell-based, mouse; settings: 0.25 mM 12 h, LPS 100 ng/ml; MitoSOX flow cytometry
Experimental: Cells were incubated with DI (0.25 mM, 12 h) or vehicle and then loaded with 5 μM of the mitochondrial superoxide indicator MitoSOX (Invitrogen) at 37° C. for 30 min in HBSS supplemented with 0.1% BSA. Cells were then rinsed with warm culture medium and LPS treatment was started 1 h later. Cells were harvested and analyzed on a Canto II flow cytometer (Becton-Dickinson).

[12] = system: bone marrow-derived macrophage (BMDM); assay: Activation of BMDM with LPS or LPS+IFN-γ (cytokines, iNOS, HIF-1α); assay type: cell-based, mouse
Experimental: Cells were incubated with FcγR-blocking anti-CD16/32 (clone 93, Biolegend) before staining with antibodies to F4/80 (clone BM8, eBioscience) and CD11b (clone M1/70; BD Pharmingen) together with LIVE/DEAD dye (Invitrogen). […] Cells were acquired on a Canto II flow cytometer (BD Biosciences) and data were analyzed using FlowJo v.9.5.2 software (Tree Star).
as §1, §2

Salmonella infection = Salmonella infection in vivo; settings: treated vs untreated mice; i.v. administration
[13] = molecular target: T1, succinate dehydrogenase (Sdh) (Mus musculus, UniProt Q8K2B3); assay: Sdh activity assay (Complex II Enzyme Activity Microplate Assay); assay type: biochemical; settings: Sdh purified from BV2 cells or BMDM
T1 construct: Sdh was purified from BV2 cells (a macrophage cell line) or BMDM; endogenous in cells; host or cells: BV2 cells (macrophage cell line) or mouse BMDM; in-well capture with the Abcam Complex II Enzyme Activity Microplate Assay Kit
T1 sequence (Q8K2B3 43-664): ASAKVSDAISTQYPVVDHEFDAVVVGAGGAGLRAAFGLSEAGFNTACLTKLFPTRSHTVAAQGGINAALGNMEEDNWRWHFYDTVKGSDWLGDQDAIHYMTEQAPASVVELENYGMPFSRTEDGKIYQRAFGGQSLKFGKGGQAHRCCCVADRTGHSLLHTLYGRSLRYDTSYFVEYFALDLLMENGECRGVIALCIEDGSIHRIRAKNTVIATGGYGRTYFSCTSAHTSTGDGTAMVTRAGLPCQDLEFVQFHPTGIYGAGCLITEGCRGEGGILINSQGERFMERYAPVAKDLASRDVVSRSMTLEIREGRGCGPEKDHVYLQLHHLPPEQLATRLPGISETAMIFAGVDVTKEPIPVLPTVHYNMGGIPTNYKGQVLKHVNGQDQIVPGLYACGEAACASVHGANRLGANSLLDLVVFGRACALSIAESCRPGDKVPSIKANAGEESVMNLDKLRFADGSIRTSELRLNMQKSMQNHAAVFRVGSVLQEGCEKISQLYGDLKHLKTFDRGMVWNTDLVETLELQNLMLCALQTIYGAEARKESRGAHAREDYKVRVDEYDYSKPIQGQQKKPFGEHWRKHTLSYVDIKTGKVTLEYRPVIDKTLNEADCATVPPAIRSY
T1 sequence (Q9CQA3 31-282 partner): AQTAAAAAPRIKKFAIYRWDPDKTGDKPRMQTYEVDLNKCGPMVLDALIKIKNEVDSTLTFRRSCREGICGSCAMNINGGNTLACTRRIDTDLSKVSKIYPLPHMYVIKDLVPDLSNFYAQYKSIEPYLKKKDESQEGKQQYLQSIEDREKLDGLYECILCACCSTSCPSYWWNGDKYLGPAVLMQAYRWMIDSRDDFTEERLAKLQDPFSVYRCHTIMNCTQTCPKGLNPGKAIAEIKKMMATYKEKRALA
T1 sequence (Q9CZB0 30-169 partner): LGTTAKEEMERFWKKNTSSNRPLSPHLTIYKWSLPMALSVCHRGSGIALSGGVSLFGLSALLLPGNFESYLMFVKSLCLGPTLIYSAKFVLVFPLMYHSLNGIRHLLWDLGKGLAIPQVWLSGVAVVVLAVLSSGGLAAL
T1 sequence (Q9CXV1 57-159 partner): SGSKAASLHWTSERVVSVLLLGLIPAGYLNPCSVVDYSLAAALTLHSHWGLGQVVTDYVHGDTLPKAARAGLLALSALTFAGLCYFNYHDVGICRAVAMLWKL
Experimental: The test compounds were diluted in activity buffer and added to the phospholipid mixture 5 min before adding the activity solution. Absorbance was measured at 600 nm.

[14] = system: Mycobacterium tuberculosis (Mtb) H37Rv in BMDM; assay: Infection of BMDM with Mycobacterium tuberculosis H37Rv; assay type: cell-based
Experimental: To address this question, BMMDs were infected with Mycobacterium tuberculosis (Mtb) H37Rv strain (MOI of 1). Three treatment groups were set up: untreated macrophages, macrophages pretreated with interferon, and macrophages pretreated with interferon and then treated with itaconate. The infection was then allowed to proceed for 7 days. On day 7 post infection, serial dilutions of infected BMDM homogenates were plated on 7H11 agar plates and colony forming unit (CFU) determined.

[15] = 12 h pretreatment, LPS 100 ng/ml 4 h
[16] = Western blot, LPS 4 h, ATP 45 min
[17] = Western blot, DI 0.25 mM 12 h, LPS 4 h, ATP 45 min
[18] = BMDM pre-treated with 0.25 mM DI 12 h, infected with live S. typhimurium
[19] = day 4 cells re-stimulated with anti-CD3 and anti-CD28, 24 h, ELISA
[20] = BMDM pretreated with DI (12 h; 0.25 mM), LPS 24 h

For C=C(CC(=O)OC)C(=O)OC [DI, dimethyl itaconate], the “production of IL-18” value [1, 15] was “potently inhibited”, the “production of mature IL-1β” value ([1]; 12 h pretreatment, LPS 100 ng/ml 4 h, then ATP, nigericin or MSU) was “potently inhibited” and the inflammasome-induced cytotoxicity ([1]; DI 0.25 mM 12 h, LPS 4 h, ATP 3 mM 45 min, live/dead dye) was “only moderately”. The “protein expression of pro-IL-1β” value [1, 16] was “decreased”, the “protein expression of ASC” value [1, 17] was “decreased” and the “protein expression of NLRP3” value [1, 17] was “decreased”. For the same compound, the dermal edema ([2]; H&E day 8) was “prevents dermal edema”, the IL-17 associated pathology ([2]; assessed day 8) was “limits IL-17 associated pathology” and the TNF-α levels [3, 18] was “only marginally affected”. The “production of IL-1β” value [3, 18] was “virtually abrogated”, the “production of IL-6” value [3, 18] was “virtually abrogated” and the “production of nitric oxide (NO)” value [3, 18] was “virtually abrogated”. For the same compound, the “number of intracellular bacteria” value ([3]; DI-treated vs control BMDM, S. typhimurium) was “comparable”, the “IL-1β production following AIM-2-dependent inflammasome activation” value [4] was “impaired” and the “extracellular acidification rate (ECAR)” value (unstimulated BMDM) was “increased”. The “frequency of IL-17-producing cells (Th17 differentiation)” value [5] was “dose-dependently inhibits”, the “cytotoxic effect (frequency of live CD4 T cells)” value [5] was “moderate dose-dependent cytotoxic effect” and the “secretion of GM-CSF” value [5, 19] was “inhibits”. For the same compound, the “secretion of IL-17” value [5, 19] was “inhibits”, the hypoxia-induced cell death [6] was “dose-dependent protection” and the “hypoxia-induced increase in ROS generation” value [6] was “attenuated”. The “concentration up to which not toxic” value [7] was “up to 0.5 mM”, the “pro-inflammatory transcripts / inflammatory markers (Nos2, II6, II12b etc.)” value [8] was “down-regulation” and the “expression of LPS-regulated genes involved in inflammasome function (II1b, II18, P2rx7, Casp1, Pycard)” value ([8]; DI 0.25 mM 12 h, LPS 4 h) was “modulated”. The “in vivo systemic IL-17 production (circulating serum IL-17)” value [9] was “diminished”, the area-at-risk ([10]; DI vs saline group) was “similar” and the myocardial infarct size ([10]; mice) was “markedly reduced”. The “reduction in infarct size” value ([10]; mice, DI 4 mg/Kg/min i.v. 10 min before and throughout ischemia) was 42%, the “LPS-induced upregulation of mROS” value [11] was “impaired” and the IL-12p70 secretion ([12]; BMDM pretreated with DI 12 h, then LPS and IFN-γ 24 h) was “suppressed”. For the same compound, the IL-6 secretion [12, 20] was “suppressed”, the TNF-α production [12, 20] was “remained unchanged” and the iNOS protein expression ([12]; BMDM pretreated with DI (12 h; 0.25 mM), then LPS and IFN-γ 24 h, flow cytometry) was “suppressed”.

With COC(=O)CC(=O)OC [dimethyl malonate, reference compound] the “production of IL-18” value [1, 15] was “inhibited”.

C=C(CC(=O)O)C(=O)O [itaconate, itaconic acid] was tested, and the “protein expression of pro-IL-1β” value [1, 16] was “significantly decreased”, the “mortality from Salmonella infection” value (Salmonella infection) was “succumb to Salmonella infection faster; also recorded: significantly accelerates mortality” and the “frequency of IL-17-producing cells (Th17 differentiation)” value [5] was “dose-dependently inhibits”. For the same compound, the “inhibition of Th17 compared with structurally similar dicarboxylic acids” value ([5]; all acids at 5 mM, day 3 post polarization) was “structure specific”, the “cytotoxic effect (frequency of live CD4 T cells)” value [5] was “not cytotoxic” and the “activity of purified Sdh” value [13] was “blocked the activity of Sdh in a dose-dependent manner”. For the same compound, the “pro-inflammatory transcripts / inflammatory markers (Nos2, II6, II12b etc.)” value [8] was “significantly decreased”, the myocardial infarct size ([10]; mice) was “reduces infarct size” and the “LPS-induced upregulation of mROS” value [11] was “impaired”. The “bacterial burden in the cells (CFU)” value ([14]; BMDM pretreated with interferon, Mtb MOI of 1, day 7 post infection) was “increased” and the “II1b levels in the supernatants” value ([14]; Mtb-infected BMDM, data not shown) was “decreased”.

In the case of O=C(O)CC(=O)O [malonate, reference compound], the “activity of purified Sdh” value [13] was “blocked the activity of Sdh in a dose-dependent manner” and the myocardial infarct size ([10]; mice) was “reduces infarct size”.
